From ChEMBL document CHEMBL5346933, “Design and synthesis of novel arylurea derivatives of aryloxy(1-phenylpropyl) alicyclic diamines with antimicrobial activity against multidrug-resistant Gram-positive bacteria” (Eur J Med Chem, 2023) come the findings set out here.

What all share (format): subcellular
What all share (conditions): time 25-30 min

The test system of assay [1] is Cell membrane. Put plainly: Induction of cell membrane depolarization in vancomycin-resistant Enterococcus faecium clinical strain assessed as ratio of red to green fluorescence intensity at 500 uM incubated for 25 to 30 mins by DiOC2(3) probe based flow cytometry.
The subject of assay [2] is Cell membrane. Put plainly: Induction of cell membrane depolarization in methicillin-resistant Staphylococcus aureus 19449 assessed as bacterial cells with polarized membrane potential at 500 uM incubated for 25 to 30 mins by DiOC2(3) probe based flow cytometry (reference value: 98.8%).
Assay [3] concerns Cell membrane. The assay can be described thus: Induction of cell membrane depolarization in vancomycin-resistant Enterococcus faecium clinical strain assessed as bacterial cells with polarized membrane potential at 500 uM incubated for 25 to 30 mins by DiOC2(3) probe based flow cytometry (reference value: 96.8%). (In general: In flow cytometry, cells or beads pass a laser one at a time.)

Assay [4] relates to Cell membrane. Put plainly: Induction of cell membrane depolarization in Staphylococcus aureus Newman assessed as bacterial cells with polarized membrane potential at 500 uM incubated for 25 to 30 mins by DiOC2(3) probe based flow cytometry (reference value: 94.3%).
Assay [5] has as its system Cell membrane. The assay can be described thus: Induction of cell membrane depolarization in methicillin-resistant Staphylococcus aureus 19449 assessed as ratio of red to green fluorescence intensity at 500 uM incubated for 25 to 30 mins by DiOC2(3) probe based flow cytometry.
Assay [6] concerns Cell membrane. Put plainly: Induction of cell membrane depolarization in Staphylococcus aureus Newman assessed as ratio of red to green fluorescence intensity at 500 uM incubated for 25 to 30 mins by DiOC2(3) probe based flow cytometry.
The subject of assay [7] is Cell membrane. The assay can be described thus: Induction of cell membrane depolarization in vancomycin-resistant Enterococcus faecium clinical strain assessed as bacterial cells with depolarized membrane potential at 500 uM incubated for 25 to 30 mins by DiOC2(3) probe based flow cytometry (reference value: 0.8%).
Assay [8] concerns Cell membrane. The assay can be described thus: Induction of cell membrane depolarization in methicillin-resistant Staphylococcus aureus 19449 assessed as bacterial cells with depolarized membrane potential at 500 uM incubated for 25 to 30 mins by DiOC2(3) probe based flow cytometry (reference value: 0.7%).
Assay [9] deals with Cell membrane. Put plainly: Induction of cell membrane depolarization in Staphylococcus aureus Newman assessed as bacterial cells with depolarized membrane potential at 500 uM incubated for 25 to 30 mins by DiOC2(3) probe based flow cytometry (reference value: 1.6%).

On to `N#CC(C#N)=NNc1cccc(Cl)c1`, for which the figures for the Ratio in the assay on Cell membrane [1], in the assay with Cell membrane [5] and in the assay with Cell membrane [6] were 0.29, 0.34 and 0.33, respectively. Besides, the Activity in the assay on Cell membrane [2] turned out to be 0.3%; in the assay on Cell membrane [3], 6.5%; with Cell membrane [4] it was 0%; with Cell membrane [7], 88.1%; with Cell membrane [8], 99%; in the assay on Cell membrane [9] it was 94.5%.
